Data published in patent US12473291B2 (priority 2019, dated 2025).
Read-outs that look alike come from different tables or passages of the source.

Legend:
SD rats = test: animal or person; assay type: in vivo; conditions: for ED50: SD rats (male, 220-300 g), injection via the tail vein, disappearance of righting reflex; for 2ED50 duration / 2ED50 recovery time / Quality of recovery: SD rats; for 2ED50 duration / 2ED50 recovery time: single tail vein injection at 2×ED50; for 2ED50 duration: time from disappearance to recovery of righting reflex; for 2ED50 recovery time: time from recovery of righting reflex to free crawling; for Quality of recovery: tail vein injection
KM mice = test: animal or person; assay type: in vivo; conditions: for 2ED50 duration / 2ED50 recovery time / Quality of recovery: KM mice; for 2ED50 duration / 2ED50 recovery time: single tail vein injection at 2×ED50; for 2ED50 duration: time from disappearance to recovery of righting reflex; for 2ED50 recovery time: time from recovery of righting reflex to free crawling; for Quality of recovery: tail vein injection; for ED50: KM mice (male, 18-22 g), injection via the tail vein, disappearance of righting reflex
[1] = Rattus norvegicus, read-out: ED50

| Compound | ED50 (SD rats; [1]) | 2ED50 duration (SD rats) | 2ED50 recovery time (SD rats) | Quality of recovery (SD rats) | 2ED50 duration (KM mice) | 2ED50 recovery time (KM mice) | Quality of recovery (KM mice) | ED50 (KM mice; Mus musculus, read-out: ED50) | ED50 (SD rats) | ED50 (KM mice) |
| --- | --- | --- | --- | --- | --- | --- | --- | --- | --- | --- |
| CCOC(CCC(C)(C)OC(=O)CC[C@@H]1N=C(c2ccccn2)c2cc(Br)cc(Cl)c2-n2c(C)cnc21)C(=O)OC (stereo partly drawn) [Example 65, Methyl 5-((3-((4S)-8-bromo-10-chloro-1-methyl-6-(pyridine-2-yl)-4H-benzo [f]imidazo[1,2-a][1,4]diazapin-4-yl)propionyl)oxy)-2-ethoxy-5-methylcaproate] | 6.3 mg/kg | 3.25 min | 2.29 min | ++++ (“++++” means 5-10 min) | 3.4 min | 2.04 min | ++ (“++” means 1-3 min) | 31.2 mg/kg | – | – |
| Cc1cnc2n1-c1cc(Br)c(Br)cc1C(c1ccccn1)=N[C@H]2CCC(=O)OCOC(=O)OC(C)C [Example 10] | 5.8 mg/kg | 5.31 min | 2.06 min | ++ (“++” means 1-3 min) | 5.12 min | 2.06 min | +++ (“+++” means 3-5 min) | 28.3 mg/kg | – | – |
| CCOC(=O)COC(=O)CC[C@@H]1N=C(c2ccccn2)c2cc(Cl)ccc2-n2c(C)cnc21 [Example 38] | – | 4.05 min | 2.55 min | ++++ (“++++” means 5-10 min) | 3.25 min | 1.25 min | ++ (“++” means 1-3 min) | – | 6.5 mg/kg | 25 mg/kg |
| CCOC(=O)OCOC(=O)CC[C@@H]1N=C(c2ccccn2)c2cc(Br)ccc2-n2c(C)cnc21 [Example 35] | 5.2 mg/kg | 3.20 min | 2.52 min | ++ (“++” means 1-3 min) | 5.25 min | 2.02 min | +++ (“+++” means 3-5 min) | 25.2 mg/kg | – | – |
| COC(=O)OCOC(=O)CC[C@@H]1N=C(c2ccccn2)c2cc(Br)c(Br)cc2-n2c(C)cnc21 [Example 8] | 5.8 mg/kg | 5.05 min | 2.18 min | ++++ (“++++” means 5-10 min) | 5.23 min | 2.18 min | +++ (“+++” means 3-5 min) | 27.5 mg/kg | – | – |
| C/C=C/C1CC(OCOC(=O)COC(=O)CC[C@@H]2N=C(c3ccccn3)c3cc(Br)c(Cl)cc3-n3c(C)cnc32)C(Br)CC1C(F)(F)F (stereo partly drawn) [Example 84, 2-(((2-Bromo-5-((E)-propan-1-en-1-yl)-4-(trifluoromethyl)cyclohexyl)oxy)methoxy)-2-oxoethyl-3-((4S)-8-bromo-9-chloro-1-methyl-6-(pyridine-2-yl)-4H-benzo[f]imidazo[1,2-a][1,4]diaza-4-yl)propionate] | 6.23 mg/kg | 2.18 min | 1.58 min | ++ (“++” means 1-3 min) | 3.16 min | 2.17 min | +++ (“+++” means 3-5 min) | 28.8 mg/kg | – | – |
| COC(=O)C1(OC(=O)CC[C@@H]2N=C(c3ccccn3)c3cc(Br)ccc3-n3c(C)cnc32)CC1 [Example 58, Methyl 1-((3-((4S)-8-bromo-1-methyl-6-(pyridine-2-yl)-4H-benzo[f]imidazo [1,2-a][1,4]diaza-4-yl)propionyl)oxy) cyclopropane-1-carboxylate] | 5.6 mg/kg | 5.09 min | 3.01 min | +++ (“+++” means 3-5 min) | 3.18 min | 1.41 min | +++ (“+++” means 3-5 min) | 28 mg/kg | – | – |
| Cc1cnc2n1-c1ccc(Br)cc1C(c1ccccn1)=N[C@H]2CCC(=O)OCOC(=O)OC(C)C(C)C (stereo partly drawn) [Example 51] | 6.5 mg/kg | 3.09 min | 2.32 min | +++ (“+++” means 3-5 min) | >10 min | 2.39 min | +++ (“+++” means 3-5 min) | 27.8 mg/kg | – | – |
| Cc1cnc2n1-c1cc(Br)c(Br)cc1C(c1ccccn1)=N[C@H]2CCC(=O)OCOC(=O)OC(C(C)C)C(C)C [Example 14] | 6.9 mg/kg | 5.06 min | 2.39 min | ++ (“++” means 1-3 min) | 6.42 min | 2.29 min | +++ (“+++” means 3-5 min) | 32 mg/kg | – | – |
| CCCOC(=O)OCOC(=O)CC[C@@H]1N=C(c2ccccn2)c2cc(Br)ccc2-n2c(C)cnc21 [Example 47] | 6.2 mg/kg | 4.07 min | 2.38 min | ++ (“++” means 1-3 min) | 3.90 min | 2.42 min | ++++ (“++++” means 5-10 min) | 27 mg/kg | – | – |
| CCOC(=O)OCOC(=O)CC[C@@H]1N=C(c2ccccn2)c2cc(Br)c(Br)cc2-n2c(C)cnc21 [Example 9] | 5.6 mg/kg | 4.12 min | 2.57 min | +++ (“+++” means 3-5 min) | 5.48 min | 2.07 min | ++++ (“++++” means 5-10 min) | 31.6 mg/kg | – | – |
| COC(=O)CC[C@@H]1N=C(c2ccccn2)c2cc(Br)ccc2-n2c(C)cnc21 [Remimazolam, reference compound] | – | 7.58 min | 6.46 min | +++++ (“+++++” means >10 min) | 8.58 min | 5.49 min | +++++ (“+++++” means >10 mm) | – | 8.9 mg/kg | 40 mg/kg |
| Cc1cnc2n1-c1cc(Br)c(Br)cc1C(c1ccccn1)=N[C@H]2CCC(=O)OCOC(=O)OC(C)C(C)C (stereo partly drawn) [Example 13] | 5.3 mg/kg | 4.02 min | 2.45 min | +++ (“+++” means 3-5 min) | 5.22 min | 2.34 min | +++ (“+++” means 3-5 min) | 27 mg/kg | – | – |
| CCOC(=O)C(C)OC(=O)CC[C@@H]1N=C(c2ccccn2)c2cc(C)c(OC)cc2-n2c(C)cnc21 (stereo partly drawn) [Example 81, 1-Ethoxy-1-oxopropane-2-yl3-((4S)-9-methoxy-1,8-dimethyl-6-(pyridine-2-yl)-4H-benzo[f]imidazo[1,2-a][1,4]diaza-4-ylpropionate malonate] | 6.2 mg/kg | 2.43 min | 2.09 min | +++ (“+++” means 3-5 min) | 3.49 min | 2.43 min | +++ (“+++” means 3-5 min) | 31.1 mg/kg | – | – |
| COC(=O)C(C)OC(=O)CC[C@@H]1N=C(c2ccccn2)c2cc(Br)c(Br)cc2-n2c(C)cnc21 (stereo partly drawn) [Example 22] | 4.3 mg/kg | 3.28 min | 2.46 min | ++ (“++” means 1-3 min) | 5.58 min | 2.18 min | ++ (“++” means 1-3 min) | 30.7 mg/kg | – | – |
